In patent publication US5539123A, “Low molecular weight thiocarbamates as inhibitors of elastase, uses and method of synthesis” (University of Kentucky Research Foundation, priority 1994, dated 1996):
Values joined by “and” are separate entries in the source; they are usually repeats but may differ in a detail not shown here. Equal entries are not always repeated. “Also recorded” adds a separate entry of the source.

Test system: Zymosan Induced Inflammation
Experiment: Zymosan-induced paw inflammation (arthritis) in rats, percent volume increase of the paw
Type: in vivo, rat
Conditions: for % Oedema Volume change: 3.6 × 10^-5 mg/g IP vs control
Source text: A reversible arthritic condition was induced according to known procedures for the Zymosan-induced arthritis (See J. P. Tarayre, A. Delphon, et al., Pharmacological studies in zymosan inflammation in rats and mice, I: Zymosan-induced paw edema in rat and mice, Pharmacological Research, 21, (#4) 375-384 (1989); Takuo Sato, Yoshitaka Ino, et al., Inhibitory effects of a novel synthetic protease inhibitor (FUT-175), on the paw edema in rats and Zymosan-induced compliment activation in vitro, Japan J. Pharmacol., 42,587-589 (1986); David K. Gremmell, et al., Comparative effects of drugs on four paw edema models on the rat, Agents and Actions 4, (#1) 107-116 (1979); and D. C. Keystone, et al., Zymosan-induced arthritis: A model of chronic proliferative arthritis following activation of the alternative pathway of compliment, Arthritis and Rheumatism 20 (#7) 1396-1401 (1977)).
Each rat (250 g each) was kept in a restraining cage with light ether anesthesia until the administration of the drug. The procedure involves the intramuscular (IM) injection of 1 mg of Zymosan in 50 μL (microliters) of normal saline in the pad of a hind paw of the rat. Swelling becomes evident within 20 minutes and reaches a maximum within 1.5 hours. The swelling disappears after 24 hours. In the Figures the reversal to normal size of the paw within 24 hours is not shown. The degree of swelling is measured by a water displacement method and the percent (%) of volume increase of the paw is plotted against time (see J. P. Tarayre, A. Delphon, et al., Pharmacological studies in zymosan inflammation in rats and mice. I: Zymosan-induced paw edema in rat and mice, Pharmaco-logical Research, 21, (#4) 375-384 (1989); Takuo Sato, Yoshitaka Ino, et al., Inhibitory effects of a novel synthetic protease inhibitor (FUT-175), on the paw edema in rats and Zymosan-induced compliment activation in vitro, Japan J. Pharmacol., 42, 587-589 (1986)).
Control was conducted by injecting I.P. 100 μl of propylene glycol (the vehicle) 15 min. prior to Zymosan administration. […] Data from tables 1 and 1a are plotted in FIGS. 1 and 1a respectively.
In the experimental procedure the drug [PC-16, […] (FIG. 2) or 90 μg/rat (FIG. 3)] is dissolved in 100 μL of propylene glycol and is injected IP to the rats. Fifteen minutes later the Zymosan (1mg/50 μL of normal saline) solution is injected IM into the paw of the rats. The degree of swelling is subsequently measured at various time intervals for a period of 24 hours and is reported up to 4 hours.

[1] = 3.6 × 10^-4 mg/g IP, time (min) = first number of the line

CCCCNC(=O)Sc1nnnn1-c1ccccc1 [PC-16]
% Volume Increase (3.6 × 10^-4 mg/g IP, 205 min): 3.41% | % Volume Increase, Mean of 3 experiments (3.6 × 10^-4 mg/g IP, 210 min): 3.48% | % Volume Increase, Mean of 3 experiments (3.6 × 10^-4 mg/g IP, 220 min): 3.30% | % Volume Increase (3.6 × 10^-4 mg/g IP, 225 min): 3.32% | % Volume Increase, Mean of 3 experiments (3.6 × 10^-4 mg/g IP, 230 min): 3.34% | % Volume Increase, Mean of 3 experiments (3.6 × 10^-4 mg/g IP, 240 min): 2.93% | % Volume Increase, Experiment #3 [1]: 0.00% and 1.02% and 1.55% and 2.18% and 2.75% and 3.44% and 3.50% | Volume, Experiment #3 [1]: 1.65 mL and 1.67 mL and 1.68 mL and 1.69 mL and 1.70 mL and 1.71 mL | % Oedema Volume change (10 min): 28.0% | % Oedema Volume change (20 min): -42.8% | % Oedema Volume change (30 min): -54.1% | % Oedema Volume change (40 min): -58.3% | % Oedema Volume change (50 min): -60.8% | % Oedema Volume change (60 min): -65.8% | % Oedema Volume change (65 min): -64.8% | % Oedema Volume change (70 min): -65.7% | % Oedema Volume change (80 min): -63.9% | % Oedema Volume change (95 min): -66.4% | % Oedema Volume change (100 min): -68.2% | % Oedema Volume change (105 min): -68.7% | % Oedema Volume change (115 min): -69.9% | % Oedema Volume change (120 min): -69.6% | % Oedema Volume change (130 min): -68.8% | % Oedema Volume change (135 min): -65.8% | % Oedema Volume change (145 min): -64.6% | % Oedema Volume change (150 min): -67.7% | % Oedema Volume change (160 min): -67.4% | % Oedema Volume change (175 min): -66.7% | % Oedema Volume change (190 min): -69.2% | % Oedema Volume change (200 min): -67.6% | % Oedema Volume change (205 min): -65.6% | % Oedema Volume change (210 min): -63.4% | % Oedema Volume change (220 min): -61.2% | % Oedema Volume change (225 min): -61.9% | % Oedema Volume change (240 min): -62.7% | % Volume Increase, Mean of 3 experiments (3.6 × 10^-5 mg/g IP, 0 min): 0.00% | % Volume Increase, Mean of 3 experiments (3.6 × 10^-5 mg/g IP, 10 min): 12.2% | % Volume Increase, Mean of 3 experiments (3.6 × 10^-5 mg/g IP, 20 min): 16.3% | % Volume Increase, Mean of 3 experiments (3.6 × 10^-5 mg/g IP, 30 min): 17.3% | % Volume Increase, Mean of 3 experiments (3.6 × 10^-5 mg/g IP, 40 min): 18.8% | % Volume Increase, Mean of 3 experiments (3.6 × 10^-5 mg/g IP, 50 min): 19.1% | % Volume Increase, Mean of 3 experiments (3.6 × 10^-5 mg/g IP, 60 min): 19.5% | % Volume Increase, Mean of 3 experiments (3.6 × 10^-5 mg/g IP, 65 min): 19.8% | % Volume Increase, Mean of 3 experiments (3.6 × 10^-5 mg/g IP, 70 min): 20.0% | % Volume Increase, Mean of 3 experiments (3.6 × 10^-5 mg/g IP, 80 min): 20.5% | % Volume Increase, Mean of 3 experiments (3.6 × 10^-5 mg/g IP, 95 min): 19.7% | % Volume Increase, Mean of 3 experiments (3.6 × 10^-5 mg/g IP, 100 min): 18.6% | % Volume Increase, Mean of 3 experiments (3.6 × 10^-5 mg/g IP, 105 min): 18.4% | % Volume Increase, Mean of 3 experiments (3.6 × 10^-5 mg/g IP, 115 min): 17.9% | % Volume Increase, Mean of 3 experiments (3.6 × 10^-5 mg/g IP, 120 min): 17.7% | % Volume Increase, Mean of 3 experiments (3.6 × 10^-5 mg/g IP, 130 min): 17.7% | % Volume Increase, Mean of 3 experiments (3.6 × 10^-5 mg/g IP, 135 min): 17.7% | % Volume Increase, Mean of 3 experiments (3.6 × 10^-5 mg/g IP, 145 min): 17.7% | % Volume Increase, Mean of 3 experiments (3.6 × 10^-5 mg/g IP, 150 min): 15.6% | % Volume Increase, Mean of 3 experiments (3.6 × 10^-5 mg/g IP, 160 min): 15.2% | % Volume Increase, Mean of 3 experiments (3.6 × 10^-5 mg/g IP, 175 min): 14.4% | % Volume Increase, Mean of 3 experiments (3.6 × 10^-5 mg/g IP, 190 min): 12.6% | % Volume Increase, Mean of 3 experiments (3.6 × 10^-5 mg/g IP, 200 min): 13.3% | % Volume Increase, Mean of 3 experiments (3.6 × 10^-5 mg/g IP, 205 min): 13.5% | % Volume Increase, Mean of 3 experiments (3.6 × 10^-5 mg/g IP, 210 min): 13.6% | % Volume Increase, Mean of 3 experiments (3.6 × 10^-5 mg/g IP, 220 min): 13.6% | % Volume Increase, Mean of 3 experiments (3.6 × 10^-5 mg/g IP, 225 min): 12.4% | % Volume Increase, Mean of 3 experiments (3.6 × 10^-5 mg/g IP, 240 min): 12.1% | oedema reduction of rat paw (injected prior to Zymosan, compared with control): impressive oedema reduction; also recorded: impressive reduction in edema swelling
